# Source: patent US20110245213A1, “TREATMENT” (PROVEXIS NATURAL PRODUCTS LIMITED, priority 2008, published 2011)
# Where “and” joins values, the source holds several entries; their conditions need not be identical. Equal values may be shown once.
# Experiments:
# [1] = test system: TGFβ1/Smad mediated transcription; assay: Luciferase reporter gene assay in NIH 3T3 cells with CAGA12-luc plasmid; format: cell-based
# Procedure: NIH 3T3 cells stably transfected with a CAGA12-luc plasmid, which responds to Smad activation (Dennler et al. (1998) Embo J 17: 3091-3100), were cultured in DMEM supplemented with 10% fetal calf serum (FCS), 1% penicillin, 1% streptomycin, 1% L-glutamine and 0.4 mg/ml geneticin. Cells were seeded into complete growth medium in a six-well tissue culture dish for 24 h, after which the medium was replaced with low serum medium (0.5% FCS) containing one of three treatments:
# (1) TGFβ1 (to achieve a final concentration of 2 ng ml^−1) in PBS buffer,
# (2) (TGFβ1+10 mM DTT in PBS buffer
# (3) TGFβ1+2 μM SF in PBS buffer.
# To simulate SF pharmacokinetics, all test samples were incubated at 37° C. for 30 minutes prior to dialysis, performed in PBS buffer for 4 hours using Slide-A-Lyzer Dialysis Cassettes MWCO 3.5K (PIERCE, http://www.piercenet.com/). Dialysis reduced SF concentration to 34 nM. As additional controls, cells were treated with PBS without TGFβ1 and PBS with SF (34 nM). The luciferase activity was determined 16 h following treatment using the Luciferase Reporter Gene assay (Roche Applied Science, http://www.roche.com/) in a Perkin Elmer Wallac Victor 2 1420 multilabel counter plate reader (http://las.perkinelmer.com/). Briefly, cells were washed twice with PBS and lysed in cell lysis buffer supplied with the assay. Chemiluminescence was immediately quantified following the addition of luciferase assay substrate. Luciferase values were normalized to protein concentration quantified using the BCA assay (Sigma-Aldrich, http://www.sigmaaldrich.com/). The experiment was repeated four times, with three replicates of each treatment per experiment. Statistical analysis was performed using 1-way ANOVA with the statistical software, R (http://www.R-project.org).
# [2] = test system: Smad2 phosphorylation in A549 cells; assay: Quantification of pSmad2 protein in A549 cells; format: cell-based; conditions: TGFβ1 alone
# [3] = test system: Smad2 phosphorylation in PC3 cells; assay: Quantification of pSmad2 protein in PC3 cells; format: cell-based; conditions: for PSmad2 / PSmad2 Normalised to GAPDH: PC3 cells
# Procedure: FIG. 14 represents (a) a photograph of a gel; and (b) the data quantified in a bar chart which corresponds to the data presented in Table 6 as discussed in Example 2 (Expt 2). The data illustrates how an ITC modulates Smad activity. The experiment concerned pre-incubation of TGFβ1 with and without sulforaphane (SF) for 30 minutes before treating PC3 cells for 1 h and then measuring Smad2 phosphorylation (i.e. a function of TGFβ1 activity).
# TGFβ1 acts an anti-inflammatory cytokine. It induces phosphorylation of smad proteins that translocate to the nucleus and induce gene expression associated with anti-inflammatory activity. […] Therefore ITCs act as anti-inflammatory mediators.
# bovine insulin = molecular target: T1, bovine insulin (Bos taurus, UniProt P01317); assay: Incubation of peptides with isothiocyanates, LC-MS/MS: insulin; format: binding; conditions: for conjugate of insulin peptide and ITC: PBS pH 7.4, 37° C., 0.5 to 24 hours
# T1 construct: m/z 325.2 corresponds to Phe-SF, the N-terminal amino acid of insulin B chain; m/z 235.0 corresponds to Gly-SF, the N-terminal amino acid of insulin A chain; purchased Sigma-Aldrich
# Procedure: (§1) Incubations of SF or IB with bovine insulin (P01308, Sigma-Aldrich), recombinant human epidermal growth factor (EGF, P01133, R&D Systems, http://www.rndsystems.com/) and recombinant human transforming growth factor beta 1 (TGFβ1, P01137, R&D Systems) were performed in sodium phosphate-buffered saline solution (pH 7.4) or human blood plasma at 37° C. for 0.5-24 h. Plasma was pre-treated by ultrafiltration to remove high molecular weight proteins (Microcon Ultracel YM-30 filter, MWCO 30,000). Samples were either analyzed directly by LC-MS/MS or by LC-MS/MS analysis of tryptic digests of gel electrophoresis bands.
# (§2) The LC system used was a Shimadzu series 10AD VP (Shimadzu, http://www.shimadzu.com/). The column was an ACE 300 C18, 150×2.1 mm (5 μm particle size) used at 40° C. Mobile phase A was 0.1% formic acid in water, mobile phase B, 0.1% formic acid in acetonitrile and the flow rate was 0.25 ml/min. A linear gradient was used from 25% B to 35% B over 0 to 5 min, then a further gradient from 35% B to 99% B over 6 min followed by 99% B for 4 min. The column was re-equilibrated for a total of 3 min. The injection volume was between 5-20 μl. All MS experiments were conducted on a 4000 QTRAP hybrid triple-quadrupole linear ion trap mass spectrometer using Analyst version 1.4.1 software (Applied Biosystems, http://www.appliedbiosystems.com/) equipped with a TurboIon source used in positive ion electrospray mode. The probe capillary voltage was optimized at 4200 V, desolvation temperature set to 400° C., curtain gas, nebulizing and turbo spray gas were set to 40, 10 and 20, respectively (arbitrary values). […] The peak-width was set on Q1 and Q3 at 1.0 Th (measured at half height) for all MS and MS/MS experiments. Spectra were obtained over the range m/z 800-2000 with scan times of 1-2 sec. […]
# [4] = test system: EGF receptor phosphorylation in BPH1 cells (hyperplastic prostate cells); conditions: BPH cells
# [5] = following broccoli consumption, cited from earlier work
# [6] = molecular target: T2, recombinant human epidermal growth factor (EGF) (Homo sapiens, UniProt P01133); assay: Incubation of peptides with isothiocyanates, LC-MS/MS: EGF; format: binding; conditions: for conjugate of EGF peptide and ITC: PBS pH 7.4, 37° C., 0.5 to 24 hours
# T2 construct: addition of SF to the N-terminal asparagines residue (m/z 309) of EGF; purchased R&D Systems
# Procedure: as §1, §2
# [7] = molecular target: T3, recombinant human transforming growth factor beta 1 (TGFβ1) (Homo sapiens, UniProt P01137); assay: Incubation of peptides with isothiocyanates, LC-MS/MS: TGFβ1; format: binding; conditions: for conjugate of TGFβ1 peptide and ITC: PBS pH 7.4, 37° C., 0.5 to 24 hours
# T3 construct: TGFβ1 was robustly identified in bands of 25 kDa corresponding to the active dimer; purchased R&D Systems
# Procedure: as §1
# 1 μg aliquots of the TGFβ1 protein, supplied with bovine serum albumin as carrier, were incubated with either DMSO or 1.2 μmoles of SF for 30 minutes at 37° C. and run onto denaturing 4-12% Bis-Tris NuPAGE gels (Invitrogen, http://www.invitrogen.com). Bands were excised and digested with trypsin (Promega, http://www.promega.com/) after reduction with dithiothreitol (DTT) and alklyation with iodoacetamide (Sigma-Aldrich, http://www.sigmaaldrich.com/). Extracted peptides were lyophilized and re-dissolved in 1% acetonitrile, 0.1% formic acid for analysis by mass spectrometry. LC-MS/MS analysis was performed using a LTQ mass spectrometer (Thermo Electron Corporation, http://www.thermo.com/) and a nanoflow-HPLC system (Surveyor, Thermo Electron). Peptides were applied to a precolumn (C18 pepmap100, LC Packings, http://www.lcpackings.com/) connected to a self-packed C18 8-cm analytical column (BioBasic resin ThermoElectron; Picotip 75 μm id, 15 μm tip, New Objective, http://www.newobjective.com/). Peptides were eluted by a gradient of 2 to 30% acetonitrile in 0.1% formic acid over 40 min at a flow rate of approximately 250 nL min^−1. Data-dependent acquisition of MS/MS consisted of selection of the five most abundant ions in each cycle: MS mass-to-charge ratio (m/z) 300 to 2000, minimum signal 1000, collision energy 25, 5 repeat hits, 300 sec exclusion.
# [8] = TGFβ1 + 2 μM SF, pre-incubated 30 minutes, cells treated 1 h
# [9] = TGFβ1 + 10 μM SF, pre-incubated 30 minutes, cells treated 1 h
# T1 sequence (P01317 25-54 limits assumed): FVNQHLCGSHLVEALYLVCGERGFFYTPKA
# T1 sequence (P01317 85-105 limits assumed): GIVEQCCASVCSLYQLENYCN
# T2 sequence (P01133 971-1023 limits assumed): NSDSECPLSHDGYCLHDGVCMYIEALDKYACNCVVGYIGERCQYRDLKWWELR
# T3 sequence (P01137 279-390 limits assumed): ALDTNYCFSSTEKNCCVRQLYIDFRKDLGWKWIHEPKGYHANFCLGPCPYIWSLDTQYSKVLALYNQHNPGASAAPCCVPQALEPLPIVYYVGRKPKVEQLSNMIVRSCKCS
compound,measurement,setting,value
"TGFβ1: recombinant human transforming growth factor beta 1 (P01137, R&D Systems)",luciferase activity,"[1]; TGFβ1 alone, 2 ng ml^−1",induced luciferase activity
same,PSmad2,[2],1570 counts/mm^2
same,PSmad2 Normalised to GAPDH,[2],0.1320
same,PSmad2,"[3]; TGFβ1 alone, 1 h",6154 counts/mm^2 and 10910 counts/mm^2 and 7089 counts/mm^2
same,PSmad2 Normalised to GAPDH,"[3]; TGFβ1 alone, 1 h",0.1039 and 0.1722 and 0.1398
"C[S+]([O-])CCCCN=C=S (stereo not shown) [SF, sulforaphane]",Smad-mediated transcription (luciferase) compared to TGFβ1 alone,[1]; TGFβ1 pre-incubated with 2 μM SF for 30 minutes followed by dialysis (SF 34 nM),increase in Smad-mediated transcription
same,Smad-mediated transcription (luciferase),"[1]; residual SF (34 nM) alone, without TGFβ1",did not result in enhanced transcription
same,conjugate of insulin peptide and ITC,bovine insulin,formation of a covalently bound conjugate
same,insulin-ITC conjugates (N-terminal Gly and Phe) by LC-MS/MS,bovine insulin; human plasma depleted of high MW proteins,appearance of two insulin-SF conjugates
same,reduction in EGF receptor phosphorylation,"[4]; 10 μmol/L sulforaphane, 10 mg/L EGF, 10 minute timecourse",approximately threefold
same,amount of phosphorylated EGF receptor compared to EGF alone,[4]; pre-incubation of EGF with ITC,reduces the amount of phosphorylated receptor
same,"SF in the plasma that occurs as free SF, as opposed to thiol conjugates",[5],45%
same,peak concentration of SF and its thiol conjugates,[5]; plasma,less than 2 μM
same,expression of pSmad2 compared to TGFβ1 alone,"[3]; PC3 cell line, co-exposure to TGFβ1 and SF",enhances expression of psamd2
same,PSmad2,[3]; [8],8179 counts/mm^2 and 12578 counts/mm^2 and 11881 counts/mm^2
same,PSmad2 Normalised to GAPDH,[3]; [8],0.1772 and 0.2807 and 0.3091
same,PSmad2,[3]; [9],13595 counts/mm^2 and 16870 counts/mm^2 and 15049 counts/mm^2
same,PSmad2 Normalised to GAPDH,[3]; [9],0.2602 and 0.2810 and 0.3104
same,conjugate of EGF peptide and ITC,[6],formation of a covalently bound conjugate
same,EGF conjugates (N-terminal asparagine) by LC-MS/MS,[6]; human plasma,formation of EGF conjugates with SF
same,"modification of TGFβ1 (tryptic N-terminal peptide, LC-MS/MS)","[7]; 1 μg TGFβ1 with 1.2 μmoles of SF, 30 minutes at 37° C., SDS-PAGE, trypsin",N-terminal modification
same,conjugate of TGFβ1 peptide and ITC,[7],formation of a covalently bound conjugate
"C[S+]([O-])CCCN=C=S (stereo not shown) [IB, iberin]",conjugate of insulin peptide and ITC,bovine insulin,formation of a covalently bound conjugate
same,conjugate of EGF peptide and ITC,[6],formation of a covalently bound conjugate
same,conjugate of TGFβ1 peptide and ITC,[7],formation of a covalently bound conjugate
